# Measurements published in the supplement of paper PMC10307832.
# How the values were obtained:
# Assay in all cases: relative viability (nuclei count vs DMSO), 5 days (fraction); higher = more cells survive
# [1] = compound: COCC[n+]1c2c(n(Cc3cnccn3)c1C)C(=O)c1ccccc1C2=O [YM155] + N=C(N)NC(=N)NCCc1ccccc1 [Phenformin] (partner 250 µM)
# Outline: (§1)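 Relative viability was taken as the ratio of nuclei in treated wells to nuclei in vehicle wells. Lung cancer cell lines in 1536-well plates received compounds by pin tool one day after seeding, either one drug alone or a fixed anchor-drug dose plus five library-drug doses (not always all listed) in √10 steps. Nuclei were counted on 4× images after 5 days of treatment, and values are medians of duplicate plates.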
# [2] = compound: CC(C)(C)c1cc(NC(=O)Nc2ccc(-c3cn4c(n3)sc3cc(OCCN5CCOCC5)ccc34)cc2)no1 [Quizartinib] + CS(=O)(=O)CCNCc1ccc(-c2ccc3ncnc(Nc4ccc(OCc5cccc(F)c5)c(Cl)c4)c3c2)o1 [Lapatinib] (partner 2 µM)
# Outline: as §1
# [3] = compound: COCC[n+]1c2c(n(Cc3cnccn3)c1C)C(=O)c1ccccc1C2=O [YM155] + CCNC(=O)c1noc(-c2cc(C(C)C)c(O)cc2O)c1-c1ccc(CN2CCOCC2)cc1 [Luminespib] (partner 0.01 µM)
# Outline: as §1
# [4] = compound: COCC[n+]1c2c(n(Cc3cnccn3)c1C)C(=O)c1ccccc1C2=O [YM155] + CC(=O)c1c(C)c2cnc(Nc3ccc(N4CCNCC4)cn3)nc2n(C2CCCC2)c1=O [Palbociclib] (partner 0.5 µM)
# Outline: as §1
Cell Line,relative viability ([1]; first compound 0.002 µM),relative viability ([1]; first compound 0.006325 µM),relative viability ([1]; first compound 0.02 µM),relative viability ([1]; first compound 0.06325 µM),relative viability ([2]; first compound 0.001 µM),relative viability ([2]; first compound 0.003162 µM),relative viability ([2]; first compound 0.01 µM),relative viability ([2]; first compound 0.03162 µM),relative viability ([2]; first compound 0.1 µM),relative viability ([3]; first compound 0.002 µM),relative viability ([3]; first compound 0.006325 µM),relative viability ([3]; first compound 0.02 µM),relative viability ([3]; first compound 0.06325 µM),relative viability ([4]; first compound 0.002 µM),relative viability ([4]; first compound 0.006325 µM),relative viability ([4]; first compound 0.02 µM),relative viability ([4]; first compound 0.06325 µM)
201T,0.405,0.443,0.492,0.475,1.09,1.04,1.07,1.06,1.05,1.05,1.06,1.04,1.09,0.367,0.339,0.361,0.369
A549,0.17,0.0769,0.177,0.137,0.919,0.912,0.998,0.59,0.99,–,–,–,–,–,–,–,–
A-427,0.314,0.39,0.365,0.333,0.714,0.938,1.04,0.998,0.986,0.895,0.965,0.85,0.441,0.532,0.502,0.567,0.293
ABC-1,0.271,0.239,0.233,0.207,1.11,–,1.17,1.02,1.29,0.439,0.386,0.169,0.256,–,0.662,0.269,0.283
BEN,0.28,0.258,0.227,0.266,0.473,0.661,0.579,0.667,0.747,0.33,0.728,0.617,0.417,0.482,0.412,0.477,0.545
CAL-12T,0.497,0.607,0.658,0.642,0.587,0.716,0.667,0.687,0.795,0.362,0.766,0.414,0.183,0.45,0.582,0.489,0.433
COR-L23,0.399,0.446,0.451,0.393,1.03,0.856,1.14,0.613,0.928,0.562,0.378,0.16,0.115,0.279,0.272,0.217,0.152
COR-L 105,0.343,0.462,0.508,0.581,0.362,0.388,0.376,0.409,0.352,0.813,0.641,0.57,0.529,0.371,0.388,0.424,0.401
Calu-6,–,–,–,–,1.02,0.986,1.15,0.815,1.09,–,–,–,–,–,–,–,–
ChaGo-K-1,0.469,0.488,0.519,0.578,–,–,–,–,–,0.651,0.509,0.715,0.714,0.951,0.909,0.881,0.918
EBC-1,–,–,–,–,0.23,0.209,0.202,0.207,0.197,–,–,–,–,–,–,–,–
EKVX,0.239,0.218,0.24,0.231,0.188,0.223,0.204,0.202,0.407,0.847,0.855,0.888,0.724,0.386,0.348,0.42,0.215
EMC-BAC-2,0.463,0.514,0.542,0.568,0.809,0.94,0.823,0.671,0.946,1.19,1.11,1.12,0.982,0.49,0.514,0.536,0.384
EPLC-272H,0.347,0.317,0.286,0.304,0.681,1.07,0.834,0.923,1.34,0.378,0.327,0.186,0.24,0.314,0.27,0.35,0.327
H3255,0.335,0.336,0.376,0.374,0.264,0.238,0.212,0.28,0.241,0.752,0.949,0.948,1.02,0.324,0.305,0.351,0.319
HARA,0.476,0.444,0.48,0.425,0.748,0.551,0.827,1.08,0.736,0.683,0.906,0.95,0.686,0.235,0.262,0.328,0.211
HCC-15,0.465,0.464,0.464,0.494,0.652,0.795,0.859,0.791,0.767,0.361,0.369,0.311,0.161,0.702,0.854,0.701,0.749
HCC-44,0.132,0.283,0.248,0.202,0.776,1.02,0.991,1.09,0.938,1.04,1.05,0.92,0.219,0.975,1.01,0.928,1
HCC-78,0.638,0.73,0.779,0.76,0.869,0.901,0.576,0.702,0.703,–,–,–,–,0.395,0.43,0.483,0.504
HCC-366,0.592,0.55,0.628,0.597,0.931,0.992,1.06,0.897,1,–,–,–,–,0.37,0.412,0.439,0.27
HCC-827,0.419,0.404,0.375,0.473,0.196,0.22,0.19,0.164,0.214,0.662,0.451,0.403,0.586,0.511,0.481,0.505,0.552
HOP-62,0.566,0.648,0.658,0.6,0.745,0.957,0.993,0.978,0.888,0.918,0.907,0.938,0.906,0.484,0.441,0.42,0.437
IA-LM,–,–,–,–,0.983,0.718,0.86,–,0.719,–,–,–,–,–,–,–,–

Cell Line,relative viability ([1]; first compound 0.002 µM),relative viability ([1]; first compound 0.006325 µM),relative viability ([1]; first compound 0.02 µM),relative viability ([1]; first compound 0.06325 µM),relative viability ([2]; first compound 0.001 µM),relative viability ([2]; first compound 0.003162 µM),relative viability ([2]; first compound 0.01 µM),relative viability ([2]; first compound 0.03162 µM),relative viability ([2]; first compound 0.1 µM),relative viability ([3]; first compound 0.002 µM),relative viability ([3]; first compound 0.006325 µM),relative viability ([3]; first compound 0.02 µM),relative viability ([3]; first compound 0.06325 µM),relative viability ([4]; first compound 0.002 µM),relative viability ([4]; first compound 0.006325 µM),relative viability ([4]; first compound 0.02 µM),relative viability ([4]; first compound 0.06325 µM)
LC-2-ad,0.528,0.616,0.581,0.535,0.791,0.883,0.724,0.839,0.607,0.942,0.959,0.869,0.331,0.455,0.485,0.511,0.411
LCLC-97TM1,0.387,0.432,0.407,0.447,–,0.862,0.527,0.848,1.43,0.838,0.816,0.717,0.71,–,0.232,0.241,0.19
LCLC-103H,0.359,0.314,0.347,0.323,–,–,–,–,–,0.927,0.832,0.846,1.04,0.472,0.471,0.491,0.499
LK-2,0.356,0.571,0.447,0.379,0.839,0.854,1,0.723,0.761,0.249,0.165,0.21,0.185,0.851,0.655,0.632,0.78
LOU-NH91,0.647,0.783,0.785,0.783,0.724,0.806,0.804,0.522,0.785,0.299,0.36,0.315,0.375,0.527,0.509,0.628,0.544
LU99A,0.856,0.883,0.822,0.847,0.857,0.901,0.999,1,0.968,0.233,0.263,0.275,0.219,0.416,0.403,0.388,0.409
LXF-289,0.522,0.524,0.506,0.532,0.788,0.838,0.932,0.923,0.892,0.651,0.683,0.675,0.504,0.584,0.628,0.612,0.605
NCI-H23,0.735,0.774,0.729,0.634,–,0.959,1.28,0.861,1.01,0.209,0.206,0.187,0.142,–,0.567,0.523,0.388
NCI-H322M,0.775,0.837,0.849,0.852,0.565,0.502,0.605,0.628,0.673,0.814,0.949,0.944,0.759,0.433,0.471,0.503,0.473
NCI-H358,0.325,0.315,0.37,0.351,0.349,0.516,0.412,–,0.39,0.222,0.374,0.352,0.311,0.129,0.129,0.134,0.157
NCI-H441,0.776,0.848,0.763,0.865,–,–,–,–,–,0.327,0.394,0.259,0.301,0.224,0.202,0.267,0.213
NCI-H460,0.518,0.531,0.546,0.477,0.924,1.03,1.26,–,0.205,0.0266,0.0307,0.035,0.0204,0.166,0.169,0.226,0.212
NCI-H520,0.58,0.535,0.636,0.604,0.649,0.766,0.828,0.85,0.591,0.238,0.266,0.215,0.233,0.175,0.205,0.238,0.304
NCI-H522,0.67,0.604,0.628,0.659,–,–,–,–,–,1.21,1.1,1.04,1.28,1.01,1.01,1.18,1.06
NCI-H596,0.65,0.718,0.861,0.741,1.06,0.985,1.08,1.08,1.17,1.06,1.02,0.924,1.27,–,–,–,–
NCI-H647,0.49,0.636,0.587,0.491,0.966,1.1,1.12,0.97,0.985,0.151,0.148,0.162,0.106,0.348,0.424,0.423,0.238
NCI-H1299,–,–,–,–,0.983,0.932,0.956,0.922,0.903,–,–,–,–,–,–,–,–
NCI-H1563,0.632,0.682,0.63,0.65,0.697,0.824,0.935,–,0.897,0.554,0.455,0.542,0.555,–,–,–,–
NCI-H1623,0.599,0.6,0.643,0.604,–,–,–,–,–,0.43,0.464,0.458,0.497,–,–,–,–
NCI-H1703,–,–,–,–,1.18,0.432,0.379,0.216,0.315,–,–,–,–,–,–,–,–
NCI-H2342,0.581,0.612,0.584,0.65,–,–,–,–,–,0.721,0.788,0.738,0.746,0.515,0.496,0.475,0.54
SW 900,0.638,0.642,0.674,0.69,–,–,–,–,–,0.179,0.188,0.164,0.177,–,0.586,0.579,0.608
